Measured values as given in PMC9064607 (Biochemistry, 2022).

Target: T1, Peptidylglycine monooxygenase (PHM) (Rattus norvegicus, UniProt P14925)
T1 sequence (P14925 42-356): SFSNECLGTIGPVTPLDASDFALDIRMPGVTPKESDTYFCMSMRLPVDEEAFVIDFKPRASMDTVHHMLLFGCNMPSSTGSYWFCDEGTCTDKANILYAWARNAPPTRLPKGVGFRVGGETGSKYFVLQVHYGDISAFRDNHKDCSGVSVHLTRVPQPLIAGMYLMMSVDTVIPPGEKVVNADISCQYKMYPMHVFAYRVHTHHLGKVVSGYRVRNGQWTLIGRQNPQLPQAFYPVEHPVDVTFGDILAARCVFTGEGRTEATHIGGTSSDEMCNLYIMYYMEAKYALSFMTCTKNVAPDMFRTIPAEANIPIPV
Experiment: chemical-quench product formation versus ascorbate, fitted to a binding event
Type: biochemical

How did the Kd turn out when `O=C1O[C@H]([C@@H](O)CO)C(O)=C1O` [ascorbate] was run?
Its Kd is 117 µM.
